Earlier results as cited in patent US20230203041A1, “ANTAGONISTS OF THE ADENOSINE A2A RECEPTOR” (AdoRx Therapeutics Limited, priority 2020, published 2023).

How the values were obtained:
[1] = clinical trials, preliminary data, cited from earlier work
solid tumors = conditions: Rutkowski et al. 2019; cited from earlier work
[2] = molecular target: programmed death receptor-1 (PD-1) (Homo sapiens, UniProt Q15116); conditions: cited from earlier work
Chain of programmed death receptor-1 (PD-1) (Q15116 25-288): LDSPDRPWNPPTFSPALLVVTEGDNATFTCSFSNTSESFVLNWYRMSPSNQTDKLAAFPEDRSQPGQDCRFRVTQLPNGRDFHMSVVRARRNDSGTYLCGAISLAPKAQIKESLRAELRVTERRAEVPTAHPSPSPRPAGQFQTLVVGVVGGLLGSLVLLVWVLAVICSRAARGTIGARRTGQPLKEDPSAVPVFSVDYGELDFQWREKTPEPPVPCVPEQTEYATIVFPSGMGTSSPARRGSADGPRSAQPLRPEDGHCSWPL

Molecule	tolerability ([1]; monotherapy and combination with atezolizumab)	CD8+ T infiltration into tumour tissue ([1]; early indications)	tumour size ([1]; early indications)	activity in solid tumors (solid tumors)	binding to PD-1 [2]
Cc1ccc(-c2nc(N)nc3c2nnn3Cc2cccc(CO[C@H]3CCOC3)n2)o1 [CPI-444]	well tolerated	enhancing CD8+ T infiltration into tumour tissue	reducing tumour size	–	–
Cetrelimab: a fully human immunoglobulin (Ig) G4 kappa monoclonal antibody that binds to programmed death receptor-1 (PD-1) with high affinity and specificity	–	–	–	activity in solid tumors	high affinity and specificity
